These results are taken from patent US10240255B2 (priority 2007, dated 2019).

The test system of series [1] is BioMAP® systems (primary human cells). The class given is cell-based.
Series [2] deals with endothelial cells and PBMC.

On to `CO/C(=C/C(N)=O)[C@H](C)[C@H](/C=C/c1csc(-c2csc([C@@H](C)/C=C/C=C/C(C)C)n2)n1)OC` [Myxothiazol], for which, in series [1], the IL1 level result is listed as “upregulation”, the MCP1 level entry was “inhibition”, the T cell activation entry was “inhibition” and the VCAM level entry is recorded as “upregulation”. For the same compound, the proliferation entry in series [1] is listed as “inhibition”.

In the case of `C=C(CC)C(=O)c1ccc(OCC(=O)O)c(Cl)c1Cl` [ethacrynic acid], in series [2] (10 μM), the E-selectin level result is given as “inhibition”, the HLA-DR level result is listed as “inhibition”, the PBMC proliferation entry is given as “inhibition” and the T cell activation result is reported as “inhibition”. In series [2] (10 μM), the VCAM level result was “inhibition” and the monocyte activation result is recorded as “inhibition”.

`COC[C@H]1OC(=O)c2coc3c2[C@@]1(C)C1=C(C3=O)[C@@H]2CCC(=O)[C@@]2(C)C[C@H]1OC(C)=O` [Wortmannin]: in series [2], the cytotoxicity entry is “not cytotoxic”.
